The NIST ThermoML archive (doi:10.1016/j.jct.2007.05.004)
Numbers after ± are expanded uncertainties.

Conditions: 293.15 K; 101 kPa; Liquid

mass density [kg/m3]	viscosity [mPa·s]	Compound
900.52 ± 0.29	0.452 ± 0.007	CCOC(C)=O [ethyl acetate]
791.9 ± 0.46	0.585 ± 0.008	CO [methanol]
933.56 ± 0.4	0.386 ± 0.006	COC(C)=O [methyl ethanoate]

Same assay, conditions: 298.15 K; 101 kPa; Liquid

mass density [kg/m3]	viscosity [mPa·s]	Compound
894.43 ± 0.3	0.426 ± 0.006	CCOC(C)=O [ethyl acetate]
787.2 ± 0.46	0.545 ± 0.008	CO [methanol]
926.98 ± 0.41	0.367 ± 0.006	COC(C)=O [methyl ethanoate]

Same assay, conditions: 303.15 K; 101 kPa; Liquid

mass density [kg/m3]	viscosity [mPa·s]	Compound
888.3 ± 0.31	0.403 ± 0.006	CCOC(C)=O [ethyl acetate]
782.48 ± 0.47	0.508 ± 0.007	CO [methanol]
920.34 ± 0.42	0.348 ± 0.006	COC(C)=O [methyl ethanoate]
